The source of these data is PubChem BioAssay (NCI).

Assay in all cases: DTP human tumour cell line panel, 48 h
Assay [1] relates to HL-60(TB) leukemia.
The subject of assay [2] is HT29 colon.
Assay [3] deals with IGROV1 ovarian.
For assay [4], the system named is NCI-H460 lung.
Assay [5] deals with OVCAR-3 ovarian.
Assay [6] has as its system OVCAR-8 ovarian.
Assay [7] has as its system RPMI-8226 leukemia.
Assay [8] has as its system SF-295 CNS.
Assay [9] has as its system SK-MEL-2 melanoma.

Where “and” joins values, the source holds several entries; their conditions need not be identical. Equal entries are not always repeated.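 Cultured in 96-well plates, cells were exposed to test compound for 48 hours across five concentrations. GI50 = concentration required for 50% inhibition of growth. TGI: concentration producing complete growth inhibition.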

One may read the TGI as the concentration at which net growth stops. High values mean less potent growth arrest, low ones more potent growth arrest. For `CNC(=S)/N=C(\N)N(C)C`, the TGI in assay [1], in assay [2], in assay [3], in assay [4], in assay [5] and in [6] was over 100 µM each time. Also, the TGI in [7] and in assay [8] was over 100 µM throughout.
As to `O=C1c2ccccc2C(=O)C1(O)c1c[nH]c2ccccc12`, the concentration for total growth inhibition (TGI) in assay [1], in assay [2], in [3], in [4], in [5] and in [6] was over 100 µM in each case. In addition, the TGI in assay [7], in [8] and in [9] was over 100 µM in each case.
What is called GI50 is the concentration at which growth is held to half of that of the control. As for `COc1cc(Cc2nccc3cc(OC)c(OC)cc23)c(C(C)=O)cc1OC`, the GI50 is over 750 µM in assay [1]; 96.8 µM and 140 µM in assay [2]; 51.4 µM and 92.7 µM in [3]; 52.9 µM and 85.5 µM and 340 µM in assay [4]; 86 µM and 27.7 µM in assay [5]; 224 µM in assay [8]. Also, the total growth inhibition concentration (TGI) in assay [1] is 130 µM and > 750 µM; in assay [2] it was 300 µM and 626 µM; in [3] it was 300 µM and 440 µM; in assay [4], 300 µM and > 750 µM; in assay [5], 300 µM and 203 µM; in assay [6], 3 µM. Also, the concentration for total growth inhibition (TGI) in assay [7] was 265 µM and > 750 µM; in [8] it was over 750 µM; in [9], 300 µM.
With `COc1cc2[nH]c3c(c2cc1OC)CCN[C@]31CC[C@]2(CC3c4c(cc(OC)c(O)c42)CCN3C)C[C@H]1OC` (stereo partly drawn), the concentration for total growth inhibition (TGI) stood at 24.6 µM in assay [1]; 63.3 µM in [2]; 80.6 µM in assay [3]; 63.5 µM in assay [4]; 46.2 µM in assay [5]; 50 µM in assay [6]. For the same compound, the figures for the total growth inhibition concentration (TGI) in assay [7] and in [8] were 41.9 µM and 36.4 µM, respectively.
On to `Cc1[nH]c(=O)nc2[nH][nH]c(=O)c12`, for which the total growth inhibition concentration (TGI) in [1], in [2], in assay [3], in assay [4], in assay [5] and in assay [6] was over 100 µM each time. Moreover, the total growth inhibition concentration (TGI) in assay [7], in assay [8] and in [9] was over 100 µM in each case.
With `O=C(O)CNS(=O)(=O)c1ccc(NC(=O)c2ccc([N+](=O)[O-])cc2)cc1`, the total growth inhibition concentration (TGI) in [1], in [2], in assay [3], in assay [4], in assay [5] and in assay [6] was over 100 µM each time. Moreover, the TGI in assay [7], in assay [8] and in assay [9] was over 100 µM in each case.
Regarding `O=C(c1cccc2ccccc12)N1CCC(C2CCN(C(=O)c3cccc4ccccc34)CC2)CC1`, the concentration for total growth inhibition (TGI) in [1], in assay [2], in assay [3], in [4], in assay [5] and in assay [6] was over 100 µM in each case. The concentration for total growth inhibition (TGI) in assay [7], in [8] and in [9] was over 100 µM each time.
Turning to `CCCN(CCC)C(=O)c1c([N+](=O)[O-])cc(C(F)(F)F)cc1[N+](=O)[O-]`, the TGI in assay [1] is 56.3 µM; in [2], over 100 µM; in assay [3] it was over 100 µM; in assay [4], over 100 µM; in assay [5] it was 34.8 µM; in assay [6], over 100 µM. The total growth inhibition concentration (TGI) in [7], in assay [8] and in [9] was over 100 µM throughout.
Consider `Cc1nnc(NS(=O)(=O)c2ccc(N=Nc3cc(N=Nc4ccc(S(=O)(=O)Nc5nnc(C)s5)cc4)c4c(NC(=O)C(Cl)Cl)cccc4c3OC(=O)C(Cl)Cl)cc2)s1` (tested in a mixture with another compound), for which the concentration for total growth inhibition (TGI) was 42.4 µM in assay [1]; over 100 µM in assay [2]; 97.5 µM in [3]; over 100 µM in assay [4]; 55.2 µM in assay [5]; 43.7 µM in assay [6]. Moreover, the TGI was 21 µM in [7], over 100 µM in assay [8] and 64.1 µM in assay [9].
For the compound `O=C(/C=C/c1ccc(Cl)c(Cl)c1)c1ccc2ccccc2c1`, the total growth inhibition concentration (TGI) in assay [1], in assay [2], in assay [3], in [4], in [5] and in assay [6] was over 100 µM each time. Moreover, the TGI in assay [7], in [8] and in [9] was over 100 µM each time.
In the case of `[N-]=[N+]=C1C(=O)NN=C1c1ccccc1`, the TGI in assay [1], in [2], in assay [3], in assay [4], in assay [5] and in assay [6] was over 100 µM in each case. In addition, the TGI in assay [7], in assay [8] and in [9] was over 100 µM in each case.
Turning to `CN(Cc1ccccc1)C(=O)c1ccccc1C(=O)O`, the TGI in assay [1], in assay [2], in assay [3], in [4], in [5] and in assay [6] was over 100 µM throughout. Further, the TGI in [7], in assay [8] and in [9] was over 100 µM each time.
For `CCOC(=O)C(=O)Nc1ccccc1CC`, the TGI in assay [1], in assay [2], in assay [3], in assay [4], in [5] and in assay [6] was over 100 µM each time. The total growth inhibition concentration (TGI) in assay [7], in assay [8] and in [9] was over 100 µM in each case.
On to `CCCC1=C(CC)C(C(=O)Nc2c(C)cccc2C)=NC(S)N1` (stereo not drawn), for which the total growth inhibition concentration (TGI) in assay [1], in assay [2], in assay [3], in assay [4], in assay [5] and in assay [6] was over 100 µM in each case. The TGI in [7], in assay [8] and in assay [9] was over 100 µM throughout.
As for `O=C(CCc1nc(=S)[nH][nH]1)Nc1ccccc1Cl`, the total growth inhibition concentration (TGI) in [1], in assay [2], in assay [3], in [4], in assay [5] and in assay [6] was over 100 µM in each case. For the same compound, the TGI in [7], in assay [8] and in [9] was over 100 µM each time.
As to `Clc1cc(Cl)c2ns[s+]c2c1Cl`, the TGI in [1], in [2], in [3], in assay [4], in assay [5] and in [6] was over 100 µM throughout. Besides, the concentration for total growth inhibition (TGI) in assay [8] and in [9] was over 100 µM in each case.
On to `CCOC(=O)N[C@@H]1C(CC(=O)OC)O[C@H]2OC(C)(C)O[C@H]21` (stereo partly drawn), for which the total growth inhibition concentration (TGI) in assay [1], in assay [2], in [3], in [4], in assay [5] and in assay [7] was over 100 µM in each case. Also, the total growth inhibition concentration (TGI) in assay [8] and in assay [9] was over 100 µM throughout.
For the compound `CC(=O)C1Cn2c(nc3ccccc32)C[Se]1` (stereo not drawn), the concentration for total growth inhibition (TGI) in assay [1] amounted to 5.71 µM; in assay [2] it was 23.2 µM; in [3] it was 6.02 µM; in [4], 16.8 µM; in assay [5], 4.5 µM; in [6], 13.3 µM. In addition, the TGI in assay [7] was 62.9 µM; in assay [8] it was 10.1 µM.
Regarding `COC(=O)C12CC3CC(CC(C(=O)O)(C3)C1)C2`, the TGI in [1], in assay [2], in [3], in assay [4], in assay [5] and in [6] was over 100 µM throughout. Further, the concentration for total growth inhibition (TGI) in assay [7] and in [8] was over 100 µM in each case.
As for `COc1ccc2c3c([nH]c2c1[N+](=O)[O-])C(C)N(C)CC3` (stereo not drawn), the TGI is over 100 µM in assay [1]; 42.6 µM in assay [2]; over 100 µM in assay [3]; over 100 µM in assay [4]; over 100 µM in assay [5]; over 100 µM in [6]. Moreover, the concentration for total growth inhibition (TGI) in assay [7], in assay [8] and in [9] was over 100 µM in each case.
Consider `COC(=O)C(CC(=O)Nc1ccc(C)cc1)C(=O)C(=O)Nc1c(C(C)C)cccc1C(C)C` (stereo not drawn), for which the TGI in assay [1], in [3], in assay [4], in assay [6], in assay [7] and in assay [9] was over 100 µM each time.
With `c1cnn(CN(Cn2cccn2)Cn2cccn2)c1`, the TGI in [1], in assay [4], in [5], in assay [6], in assay [7] and in assay [8] was over 100 µM each time. This compound yielded a total growth inhibition concentration (TGI) in [9] of over 100 µM.
For `O=C(N/N=C/c1cc(Br)ccc1O)N/N=C/c1cc(Br)ccc1O`, the TGI in assay [1] is over 100 µM; in [2] it was over 100 µM; in assay [4], over 100 µM; in assay [6] it was 21.1 µM; in assay [8] it was over 100 µM.
